Where two headings read alike, the source gives them in different places.
Key:
Type in all cases: in vivo
Tetranychus urticae = Tetranychus urticae (Two-Spotted Spider Mite) bean leaf disc spray test; conditions: foliar, 192 h, read-out: control of Tetranychus urticae
Spodoptera littoralis = Spodoptera littoralis (Egyptian Cotton Leafworm) cotton leaf disc spray test; conditions: foliar, 72 h, 200 ppm spray on cotton leaf discs, L1 larvae, mortality, feeding behavior, growth regulation 3 DAT
Heliothis virescens = Heliothis virescens (Tobacco Budworm) egg test on artificial diet; conditions: 96 h, 200 ppm (concentration in well 18 ppm), eggs 0-24 h old on artificial diet, 4 days, egg mortality, larval mortality, growth regulation
Thrips tabaci = Thrips tabaci (Onion Thrips) sunflower leaf disc spray test; conditions: foliar, 168 h, 200 ppm spray on sunflower leaf discs, population of mixed ages, 7 days, mortality
Plutella xylostella = Plutella xylostella (Diamond Back Moth) artificial diet MTP test; conditions: 144 h, 200 ppm (concentration in well 18 ppm), L2 larvae, 6 days, larval mortality, growth regulation
Diabrotica balteata = Diabrotica balteata (Corn Root Worm) artificial diet MTP test; conditions: 120 h, 200 ppm (concentration in well 18 ppm), L2 larvae, 5 days, larval mortality, growth regulation
[1] = 200 ppm spray on bean leaf discs, mite populations of mixed ages, 8 days, egg, larval and adult mortality

Measured: pest or weed control at 200 ppm

COc1c(NC(=O)c2cccc(CC#N)c2)cccc1C(=O)Nc1c(Cl)cc(C(F)(C(F)(F)F)C(F)(F)C(F)(F)F)cc1Br (stereo not drawn) [B110]
≥ 80%: Tetranychus urticae; [1] | Spodoptera littoralis | Heliothis virescens | Thrips tabaci | Plutella xylostella | Diabrotica balteata

COc1c(NC(=O)c2ccc(Br)cc2Cl)cccc1C(=O)Nc1c(Cl)cc(C(F)(C(F)(F)F)C(F)(F)C(F)(F)F)cc1Br (stereo not drawn) [B135]
≥ 80%: Tetranychus urticae; [1] | Spodoptera littoralis | Heliothis virescens | Thrips tabaci | Plutella xylostella | Diabrotica balteata

COc1c(NC(=O)c2ccc(C#N)cc2C)cccc1C(=O)Nc1c(Cl)cc(C(F)(C(F)(F)F)C(F)(F)C(F)(F)F)cc1Cl (stereo not drawn) [C2, N-[2,6-dichloro-4-(1,2,2,3,3,3-hexafluoro-1-trifluoromethylpropyl)phenyl]-3-(4-cyano-2-methylbenzoylamino)-2-methoxybenzamide]
≥ 80%: Tetranychus urticae; [1] | Spodoptera littoralis | Heliothis virescens | Thrips tabaci | Plutella xylostella | Diabrotica balteata

COc1c(NC(=O)c2ccc(C(F)(F)F)nc2C)cccc1C(=O)Nc1c(Cl)cc(C(F)(C(F)(F)F)C(F)(F)C(F)(F)F)cc1Br (stereo not drawn) [B127]
≥ 80%: Tetranychus urticae; [1] | Spodoptera littoralis | Heliothis virescens | Thrips tabaci | Plutella xylostella | Diabrotica balteata

CCc1cc(C(F)(C(F)(F)F)C(F)(F)C(F)(F)F)cc(C)c1NC(=O)c1cccc(NC(=O)c2cc(Cl)ccc2Cl)c1OC (stereo not drawn) [A16]
≥ 80%: Tetranychus urticae; [1] | Spodoptera littoralis | Heliothis virescens | Thrips tabaci | Plutella xylostella | Diabrotica balteata

COc1c(NC(=O)c2snnc2C)cccc1C(=O)Nc1c(Cl)cc(C(F)(C(F)(F)F)C(F)(F)C(F)(F)F)cc1Cl (stereo not drawn) [C21]
≥ 80%: Tetranychus urticae; [1] | Spodoptera littoralis | Heliothis virescens | Thrips tabaci | Plutella xylostella | Diabrotica balteata

COc1c(NC(=O)c2cccc(Cl)c2Cl)cccc1C(=O)Nc1c(Cl)cc(C(F)(C(F)(F)F)C(F)(F)C(F)(F)F)cc1Br (stereo not drawn) [B184]
≥ 80%: Tetranychus urticae; [1] | Spodoptera littoralis | Heliothis virescens | Thrips tabaci | Plutella xylostella | Diabrotica balteata

COc1c(NC(=O)c2ccc(OC(F)(F)F)cc2)cccc1C(=O)Nc1c(Cl)cc(C(F)(C(F)(F)F)C(F)(F)C(F)(F)F)cc1Cl (stereo not drawn) [C13]
≥ 80%: Tetranychus urticae; [1] | Spodoptera littoralis | Heliothis virescens | Thrips tabaci | Plutella xylostella | Diabrotica balteata

COc1c(NC(=O)c2ccc([N+](=O)[O-])cc2Cl)cccc1C(=O)Nc1c(Cl)cc(C(F)(C(F)(F)F)C(F)(F)C(F)(F)F)cc1Cl (stereo not drawn) [C11]
≥ 80%: Tetranychus urticae; [1] | Spodoptera littoralis | Heliothis virescens | Thrips tabaci | Plutella xylostella | Diabrotica balteata

COc1c(NC(=O)c2ccc([N+](=O)[O-])cc2[N+](=O)[O-])cccc1C(=O)Nc1c(Cl)cc(C(F)(C(F)(F)F)C(F)(F)C(F)(F)F)cc1Br (stereo not drawn) [B180]
≥ 80%: Tetranychus urticae | Spodoptera littoralis | Heliothis virescens | Thrips tabaci | Plutella xylostella | Diabrotica balteata

COc1c(NC(=O)c2ccc(Cl)c(OC)c2Cl)cccc1C(=O)Nc1c(Cl)cc(C(F)(C(F)(F)F)C(F)(F)C(F)(F)F)cc1Br (stereo not drawn) [B109]
≥ 80%: Tetranychus urticae; [1] | Spodoptera littoralis | Heliothis virescens | Thrips tabaci | Plutella xylostella | Diabrotica balteata

COc1c(NC(=O)c2ccc([N+](=O)[O-])cc2C(F)(F)F)cccc1C(=O)Nc1c(Cl)cc(C(F)(C(F)(F)F)C(F)(F)C(F)(F)F)cc1Br (stereo not drawn) [B178]
≥ 80%: Tetranychus urticae; [1] | Spodoptera littoralis | Heliothis virescens | Thrips tabaci | Plutella xylostella | Diabrotica balteata

CCc1cc(C(F)(C(F)(F)F)C(F)(F)C(F)(F)F)cc(C)c1NC(=O)c1cccc(NC(=O)c2cccnc2Cl)c1OC (stereo not drawn) [A6]
≥ 80%: Tetranychus urticae; [1] | Spodoptera littoralis | Heliothis virescens | Thrips tabaci | Plutella xylostella | Diabrotica balteata

COc1c(NC(=O)c2ccc(F)cc2C)cccc1C(=O)Nc1c(Cl)cc(C(F)(C(F)(F)F)C(F)(F)C(F)(F)F)cc1Cl (stereo not drawn) [C9]
≥ 80%: Tetranychus urticae; [1] | Spodoptera littoralis | Heliothis virescens | Thrips tabaci | Plutella xylostella | Diabrotica balteata

COc1c(NC(=O)c2cccnc2C(F)(F)F)cccc1C(=O)Nc1c(Cl)cc(C(F)(C(F)(F)F)C(F)(F)C(F)(F)F)cc1Br (stereo not drawn) [B81]
≥ 80%: Tetranychus urticae; [1] | Spodoptera littoralis | Heliothis virescens | Thrips tabaci | Plutella xylostella | Diabrotica balteata

COc1c(NC(=O)c2ccc(F)cc2C)cccc1C(=O)Nc1c(Cl)cc(C(F)(C(F)(F)F)C(F)(F)C(F)(F)F)cc1Br (stereo not drawn) [B9]
≥ 80%: Tetranychus urticae; [1] | Spodoptera littoralis | Heliothis virescens | Thrips tabaci | Plutella xylostella | Diabrotica balteata
